Results taken from the NIST ThermoML archive (doi:10.1016/j.fluid.2017.06.026).
± gives the expanded uncertainty stated by the source.

Conditions: 298.15 K, Ring tensiometer

SMILES | surface tension liquid-gas [mN/m]
CCCCCOP(=O)(OCCCCC)OCCCCC [tripentyl phosphate] | 26.2 ± 3
O=P(OCC(F)(F)C(F)(F)C(F)(F)C(F)F)(OCC(F)(F)C(F)(F)C(F)(F)C(F)F)OCC(F)(F)C(F)(F)C(F)(F)C(F)F [tris (1H,1H,5H-octafluoropentyl) phosphate] | 22.9 ± 3
